Test results reported in US5783700A, “Quinolic acid derivatives” (priority 1997, dated 1998).
Entries after “also recorded” stand apart in the source; their conditions may differ.

How the values were obtained:
TTE seizure = assay: Threshold tonic extension (TTE) test, ip; assay type: in vivo, male Carworth Farms no. 1 mice; conditions: for minimal effective dose at 100 mg/kg: ip 100 mg/kg, 1/4 to 4 hr post treatment, 12.5 mA, bracketed = maximum ineffective dose (given as >), unbracketed = effective dose (=), read-out: TTE: effective or [maximum ineffective] intraperitoneal dose
Description: (§1) Biological Testing--Compounds were screened for anticonvulsant activity in male Carworth Farms no. 1 mice. The maximal electroshock (MES), subcutaneous Metrazol (pentylenetetrazole) (Met), and threshold tonic extension (TTE) tests were used to evaluate compounds for anticonvulsive activity. A rotorod protocol was used to determine neurotoxicity. Solutions for injection were prepared in 30% polyethylene glycol 400. Except for the TTE tests, animals were dosed ip at two different time periods: either 30 min. or 4 hr prior to testing. At each time period, three groups of four mice were tested at the following dose levels: 30, 100, and 300 mg/kg. This treatment protocol was followed for MES, Met, and rotorod testing.
The threshold tonic extension (TTE) test is similar to the MES screen but uses a lower level of electrical current (Piredda et al., 1985). The lower current makes the test more sensitive but less discriminate than the MES screen. Twenty mice were pretreated ip with 100 mg/kg of the test compound. At time intervals of 1/4, 1/2, 1, 2, and 4 hr post treatment, 4 mice were challenged with 12.5 mA of electrical current for 0.2 sec. via corneal electrodes. This current produces a TTE seizure in untreated animals. Protection was defined as an absence of seizures. Additional TTE testing was conducted on compound 10 to determine the ED50 value for the observed protective effect. In this case, 6 groups containing either 8 or 16 animals were injected ip and tested two hours following treatment. Each group received a specified dose ranging from 20-500 mg/kg. An ED50 value was determined from a log dose-response plot of the resulting data.

GABA-A neuroreceptor = assay: [^3 H]-muscimol competition binding; assay type: rat (cerebral cortex membranes); conditions: 5 nM [^3 H]-muscimol, compound 10 uM to 10 nM
Description: Compound 10 was screened for activity at the GABA-A neuroreceptor complex using [^3 H]-muscimol (20.0 Ci/mmol), also from DuPont-New England Nuclear. The filtration method reported by Williams and Risley (1979) was used for this assay. Membranes were initially prepared as described previously and frozen at -20° C. in distilled water for 24 hr. After thawing, membranes were resuspended in 50 mM Tris-acetate buffer (pH 7.0) which contained 0.1% (v/v) saponin (Sigma). The tissue was centrifuged at 48,000×g for 20 min. and the resulting pellet was resuspended in 30 volumes of 50 mM Tris-acetate buffer (pH 7.0) containing 100 mM KCI. The tissue was again centrifuged at 48,000×g for 20 min. After decanting the supernatant, the pellet was covered with fresh KCI containing Tris-acetate buffer and frozen for 24 hr.
On the day of the assay, the tissue was thawed and resuspended in 30 volumes of 50 mM Trisacetate (pH 7.0) with 100 mM KCI and centrifuged at 48,000×g for 20 min. This washing procedure was repeated twice. The final pellet was resuspended in 32 mL buffer. Membranes were incubated in a final volume of 1 mL with 5 nM [^3 H]-muscimol at 4° C. for 30 min. Samples were run in triplicate employing six different concentrations of compound 10 ranging from 10 uM to 10 nM. The assay was performed in duplicate. Each sample, including controls, contained 1.0% dimethyl sulfoxide (DMSO) to insure solubilization of the test compound. Nonspecific binding was determined in the presence of 200 uM gamma-aminobutyric acid (GABA) and subtracted. Binding was terminated using a Brandel M-24C cell harvester employing rapid filtration through GF/C glass fiber filters presoaked in 0.1% (v/v) polyethylenimine. Filters were washed with 1 mL cold water. Radioactivity bound to the filters was determined by scintillation counting.

[1] = target: T1, glycine binding site on the NMDA receptor (Rattus norvegicus, UniProt P35439); assay: Inhibition of [^3 H]-5,7-dichlorokynurenic acid specific binding; assay type: rat (cerebral cortex membranes); conditions: for Inhibition of [^3 H]-5,7-Dichlorokynurenic Acid Binding, % of Control: 10 uM test compound, 15 min, 10 µM; for Inhibition of [^3 H]-5,7-Dichlorokynurenic Acid Binding, % of Control / remaining activity at 10 µM: 10 nM radioligand, pH 7.4, mean ± SEM of three determinations; for remaining activity at 10 µM: 0.25 h, pH 7.4, 10 uM test compound, read-out: Inhibition of [^3 H]-5,7-Dichlorokynurenic Acid Binding, % of Control; for [^3 H]-5,7-dichlorokynurenic acid displacement: 10 uM
T1 construct: Membranes were prepared from rat cerebral cortex; from tissue; host or cells: rat cerebral cortex, "buffy coat" membrane fragments
Description: Binding Studies--The procedure of Baron et al. (1991) was used to assay for the inhibition of specific binding at the glycine binding site on the NMDA receptor. The labeled ligand used in this assay was [^3 H]-5,7-dichlorokynurenic acid (15.8 Ci/mmol) from DuPont-New England Nuclear (Boston, Mass.). […] Inhibition of specific binding was determined for selected compounds at a concentration of 10 uM using "buffy coat" membrane fragments (Jones et al., 1989). Membranes were prepared from rat cerebral cortex and assays were conducted in 50 mM HEPES-KOH buffer (Sigma, St. Louis, Mo.) at pH 7.4. Membranes were incubated in a final volume of 1 mL containing 10 nM [^3 H]-5,7-dichlorokynurenic acid. Incubation was continued for 15 min. at 4° C. Nonspecific binding was determined in the presence of 1 mM glycine and subtracted. Binding was terminated by centrifugation at 48,000×g for 10 min. Each of the resultant pellets was washed rapidly with 1 mL ice water and solubilized with 1 mL of a tissue solubilizer (Solvable, DuPont NEN). The solubilized samples were each dissolved in 10 mL 3a70B Complete Counting Cocktail (RPI, Mount Prospect, Ill.). Membrane bound radioactivity was determined using a Beckman LS-5000TD liquid scintillation counter. This screening procedure was conducted in triplicate in three separate tests. Results are presented as percent of control (±SEM, standard error of the mean).

[2] = test system: NMDA-associated PCP binding site; assay: [^3 H]-TCP binding displacement; assay type: rat (cerebral cortex membranes)
Description: Compound 10 was also screened for activity at the NMDA-associated PCP binding site, and, additionally, for activity at the GABA-A neuroreceptor. To determine possible effects on PCP binding, N-(1-(2-thienyl)cyclohexyl)-3,4-[^3 H]-piperidine ("[^3 H]-TCP") binding was assayed using the technique of Johnson et al. (1988). TCP is the thienyl derivative of PCP. Binding of [^3 H]-TCP to the NMDA receptor complex can be modulated by glycine agonists and antagonists (Benavides et al., 1988). DuPont-New England Nuclear was the source for [^3 H]-TCP (44.5 Ci/mmol). Membranes were prepared as described above. Assays were conducted in 5 mM Tris-acetate (pH 7.4) buffer containing 10 uM L-glutamic acid and 3 uM glycine. […] Nonspecific binding was determined in the presence of 30 uM PCP and subtracted. Samples were incubated at 24° C. for 1 hr. Binding was terminated using a Brandel M-24C cell harvester employing rapid filtration through GF/C glass filters presoaked in 0.1%(v/v)polyethylenimine. Filters were washed rapidly with two 1 mL aliquots of ice-cold water. Samples were run in triplicate at six different drug concentrations ranging from 1 uM to 5 nM. The experiment was repeated with buffer containing 0.1 mM L-glu and no added glycine. Two separate assays were conducted for each experiment.

[3] = Rotorod test for drug induced neurological deficit (neurotoxicity), ip; assay type: in vivo, male Carworth Farms no. 1 mice; conditions: for Rotorod: effective or [maximum ineffective] intraperitoneal dose: neurotoxicity, 30 min or 4 hr, 30, 100, 300 mg/kg, bracketed = maximum ineffective dose (given as >), unbracketed = effective (neurotoxic) dose (=)
Description: as §1
Animals were tested for drug induced neurological deficit using a rotorod. Either 30 min. or 4 hr after treatment, the animal was placed on a 1-inch diameter knurled plastic rod rotating at 6 rpm. Neurological deficit was defined as the failure of the animal to remain on the rod for 1 min.

[4] = Overall in vivo activity (MES, Met, TTE, rotorod); set-up: species or system male Carworth Farms no. 1 mice; conditions: ip
Description: as §1
Maximal electroshock (MES) induced seizures were elicited with a 60 cycle alternating current of 50 mA intensity (five to seven times the intensity necessary to evoke minimal electroshock threshold seizures). Current was delivered via corneal electrodes for 0.2 sec. A drop of 0.9% saline was instilled in the eye prior to application of the electrodes. Abolition of the hindlimb tonic extension component of the seizure was defined as protection. […]
The threshold tonic extension (TTE) test is similar to the MES screen but uses a lower level of electrical current (Piredda et al., 1985). […] An ED50 value was determined from a log dose-response plot of the resulting data. […]

MES induced seizures = assay: Maximal electroshock (MES) anticonvulsant test, ip; assay type: in vivo, male Carworth Farms no. 1 mice
Description: as §1
Maximal electroshock (MES) induced seizures were elicited with a 60 cycle alternating current of 50 mA intensity (five to seven times the intensity necessary to evoke minimal electroshock threshold seizures). Current was delivered via corneal electrodes for 0.2 sec. A drop of 0.9% saline was instilled in the eye prior to application of the electrodes. Abolition of the hindlimb tonic extension component of the seizure was defined as protection.

Compound	remaining activity at 10 µM [1]	minimal effective dose at 100 mg/kg (TTE seizure; Mus musculus)	Rotorod: effective or [maximum ineffective] intraperitoneal dose [3]	other results
CCOC(=O)c1cc(NC(=O)N(c2ccccc2)c2cccc(OC)c2)c2c(Cl)cc(Cl)cc2n1 [Compound 11]		100 mg/kg	> 300 mg/kg	TTE anticonvulsant activity (TTE seizure; ip, 100 mg/kg): active
CCN(CC)C(=O)Nc1cc(C(=O)O)nc2cc(Cl)cc(Cl)c12 [Compound 3]		> 100 mg/kg	300 mg/kg	neurotoxicity in rotorod test [3]: neurotoxic
CN(C)C(=O)Nc1cc(C(=O)O)nc2cc(Cl)cc(Cl)c12 [Compound 5]			> 300 mg/kg	MES activity (MES induced seizures): demonstrated activity
CCOC(=O)c1cc(NC(=O)N(c2ccccc2)c2ccccc2)c2c(Cl)cc(Cl)cc2n1 [Compound 8]	77 ± 7%	100 mg/kg	> 300 mg/kg	
O=C(O)c1cc(NC(=O)N(c2ccccc2)c2ccccc2)c2c(Cl)cc(Cl)cc2n1 [Compound 9]	25 ± 5%	100 mg/kg	> 300 mg/kg	Inhibition of [^3 H]-5,7-Dichlorokynurenic Acid Binding, % of Control [1]: 20-30 % of Control
COc1cccc(N(C(=O)Nc2cc(C(=O)O)nc3cc(Cl)cc(Cl)c23)c2ccccc2)c1 [Compound 12]			> 300 mg/kg	MES activity (MES induced seizures): demonstrated activity
CCOC(=O)c1cc(NC(=O)N(CC)CC)c2c(Cl)cc(Cl)cc2n1 [Compound 2]		100 mg/kg	> 300 mg/kg	

Second part, led by results:

remaining activity at 10 µM [1]	Compound	minimal effective dose at 100 mg/kg (TTE seizure; Mus musculus)	Rotorod: effective or [maximum ineffective] intraperitoneal dose [3]	other results
42 ± 7%	COC(=O)c1cc(NC(=O)N(c2ccccc2)c2ccccc2)c2c(Cl)cc(Cl)cc2n1 [Compound 10, 2-methyl carboxylate-5,7-dichloro-4-[[(diphenylamino)-carbonyl]amino]-quinoline]	100 mg/kg	> 300 mg/kg	ED50 (TTE seizure; Mus musculus, 2 h, ip, two hours following treatment, doses 20-500 mg/kg): 134 mg/kg; S.E. of slope of TTE dose-response (TTE seizure; log dose-response plot, ip): 0.44; slope of TTE dose-response (TTE seizure; log dose-response plot, ip): 1.9; effect on [^3 H]-muscimol binding (GABA-A) (GABA-A neuroreceptor): No significant difference from control; also recorded: no effect; also recorded: No significant effects were observed; effect on [^3 H]-muscimol binding (GABA-A) (GABA-A neuroreceptor; listed as 2-methyl carboxylate-5,7-dichloro4-[[(diphenylamino)-carbonyl]amino]-quinoline): tested negative; effect on [^3 H]-muscimol binding (GABA-A) (GABA-A neuroreceptor; listed as 2-methyl carboxylate-5,7-dichloro-4-[[(diphenylamino)-carbonyl]amino]-quinoline): No significant effects were observed; Inhibition of [^3 H]-5,7-Dichlorokynurenic Acid Binding, % of Control [1]: 42 % of Control; effect on [^3 H]-TCP binding ([2]; 10 uM L-glutamic acid and 3 uM glycine, compound 1 uM to 5 nM): No significant effect; effect on [^3 H]-TCP binding ([2]; 10 uM L-glutamic acid and 3 uM glycine, compound 1 uM to 5 nM, listed as 2-methyl carboxylate-5,7-dichloro-4-[[(diphenylamino)-carbonyl]amino]-quinoline): No significant effect; effect on [^3 H]-TCP binding ([2]; L-glutamate, no added glycine, compound 5 uM to 10 nM): no significant effect; PCP activity at the NMDA receptor ([2]; summary statement): tested negative
76 ± 6%	CCCCN(CCCC)C(=O)Nc1cc(C(=O)OCC)nc2cc(Cl)cc(Cl)c12 [Compound 6]	100 mg/kg	> 300 mg/kg	
58 ± 8%	CCN(CC)C(=O)Nc1cc(C(=O)OC)nc2cc(Cl)cc(Cl)c12 [Compound 1]		> 300 mg/kg	[^3 H]-5,7-dichlorokynurenic acid displacement [1]: active; in vivo / CNS anticonvulsant activity [4]: no in vivo activity; also recorded: no CNS activity; also recorded: did not have any in vivo effects
20 ± 11%	CCCCN(CCCC)C(=O)Nc1cc(C(=O)O)nc2cc(Cl)cc(Cl)c12 [Compound 7]	100 mg/kg	> 300 mg/kg	Inhibition of [^3 H]-5,7-Dichlorokynurenic Acid Binding, % of Control [1]: 20-30 % of Control
57 ± 1%	CCOC(=O)c1cc(NC(=O)N(C)C)c2c(Cl)cc(Cl)cc2n1 [Compound 4]	> 100 mg/kg	> 300 mg/kg	[^3 H]-5,7-dichlorokynurenic acid displacement [1]: active; in vivo / CNS anticonvulsant activity [4]: no in vivo activity; also recorded: no CNS activity; also recorded: did not have any in vivo effects
